Source: patent US6440690B1, “Peptides for the activation of the immune system in humans and animals” (priority 1995, dated 2002)
Entries after “also recorded” stand apart in the source; their conditions may differ. Ends that are not written are not given here.

Key:
Leishmania major [1] = assay: Murine cutaneous leishmaniasis, SPYY i.v. in Balb/c mice; assay type: in vivo; settings: same doses as SPYY, 6 mice
Leishmania = settings: 300 mg/kg for 20-40 injections; cited from earlier work
[2] = system: pathogenic microorganisms including bacteria, yeasts, filamentous fungi and protozoa; assay: Antimicrobial activity on the spectrum of microorganisms of TABLE I; assay type: cell-based; settings: same experimental conditions
Experimental: Methods. […] Antimicrobial assays were performed as described in Mor and Nicolas, 1994, J. Biol. Chem. 269:1934-1939. The effect on leishmania was assessed after 1 hour peptide exposure by counting living cells following trypan blue […]. Promastigotes were cultured (1×10^5 cells/ml) at 26° C. […] Trop. Med. Parasitol. 78:423-425, and cultured (1×10^4 cells/ml) at 37° C. Reversibility of inhibition was assessed by incubating 0.5 ml suspension containing 1×10^6 cells/ml in culture media in presence of peptide concentration of 0.2 mg/ml. After various incubation periods, aliquots were centrifuged at 900 g, the pellet washed and reincubated for 24 hours in fresh culture medium.
To verify the reversibility of inhibition, treated suspensions were thoroughly washed at various periods and reincubated in fresh medium.

[3] = Dissipation of Diffusion Potential Assay (membrane permeation); settings: SUV pretreated with diS-C2-5 and valinomycin
Experimental: Methods: Small unilamellar vesicles (SUV) were prepared by sonication of PC/PS (1:1 w/w) and cholesterol (10% by weight) as described in Shai et al., 1991, J. Biol. Chem. 266:22346-54. Membrane permeation was assessed using the diffusion potential assay. Sims et al., 1974, Biochemistry 13:3315-3330; Shai et al., 1991, J. Biol. Chem. 266:22346-54. […] Maximal activity of the peptides was plotted versus peptide/lipid molar ratio.

Leishmania major [4] = assay: Murine cutaneous leishmaniasis, drug administration to infected Balb/c mice (TABLE V); assay type: in vivo
From the text: To investigate the peptide's efficacy in affecting leishmania parasites in vivo, murine cutaneous-leishmaniasis models were used in which mice inoculated with Leishmania major promastigotes were allowed to develop a characteristic cutaneous lesion that attained a mean diameter of […] at day 27 of inoculation. Frommel et al., 1988 , Infection and Immunity 56:843. Treatment consisted of 3 peptide injections at intervals of 5 days and was compared with the effect induced by sodium stibogluconate, the current anti-leishmaniasis drug of choice. After injections, samples drawn periodically from the lesion area were analyzed for assessment of parasites evolution.
Methods: Female mice, 6 to 8 weeks old, were inoculated with Leishmania major promastigotes (1×10^6) at the proximal portion of the tail as described in Frommel et al., 1988, Infection and Immunity 56:843. […] Simultaneously, evolution of the cutaneous lesion was assessed by direct measurement of the necrotic zone of the lesion.
Methods. Cytokine concentrations in serum of treated and untreated Balb/c mice were determined by enzyme-immunoassay (Kit Genzyme®) using murine anti-IFN-γ or anti-TNF-α monoclonal antibodies and the corresponding rabbit polyclonal antibodies conjugated to peroxidase, following the manufacturer instructions.

Pseudonomas aeruginosa = settings: U.S. Pat. No. 5,221,664; cited from earlier work

EEEKRENEDEEKQDDEQSEM [acidic peptide, helical acidic synthetic peptide, control]
control peptide compared with physiological water control (Leishmania major [1]): No significant differences

meglumine antimoniate [Glucantime]
outcome of therapy (Leishmania): does not cure the disease but only results in a transient reduction of the symptoms

PYY: human PYY, 36-residue peptide of the pancreatic peptide family
antimicrobial potency compared with SPYY [2]: inhibitory activity at comparable concentrations

NPY: human NPY, 36-residue peptide of the pancreatic peptide family
antimicrobial potency compared with SPYY [2]: inhibitory activity at comparable concentrations

PEEMNKYLTALRHYINLVTRQRY-NH2 [SPYY14-36]
membrane permeation [3]: permeated phospholipid vesicles
antimicrobial potency compared with SPYY [2]: comparable molar potency

O.O.O.O.O.O.O.O.O.O=C([O-])[C@@H]1[O][Sb]2([O-])([O][Sb]34([OH])[O][C@H]([C@H](O)CO)[C@H]([O]3)[C@H](C(=O)[O-])[O]4)[O][C@H]([C@H](O)CO)[C@@H]1[O]2.[Na+].[Na+].[Na+] [NaSG, sodium stibogluconate]
outcome of the cutaneous lesion / disease (Leishmania major [4]; Balb/c, up to twelve weeks post inoculation and later): reduced; also recorded: complete healing or skin cicatrization were not observed
reduction of number of parasites and lesion size (Leishmania major [4]; mouse, in vivo): partially effective

Magainin II: magainin peptide
MIC (Pseudonomas aeruginosa): 256 µM
